{"source": "paper PMC12612990", "about": "“PNA5, a glycosylated angiotensin-(1−7) mas receptor agonist for vascular dementia: A two species toxicology and toxicokinetic study” (Toxicology Reports, 2025)", "key": {"male Sprague Dawley rats [1]": {"tested_on": "male Sprague Dawley rats", "test": "Pulmonary safety parameters after a single subcutaneous dose in male Sprague Dawley rats", "type": "in vivo, rat", "details": "single s.c. dose 1, 5 or 40 mg/kg, n = 8 per group", "experimental": "Respiratory rate, tidal volume, and calculated minute volume were measured in male Sprague Dawley rats to measure pulmonary safety parameters after a single subcutaneous dose of 0, 1, 5, or 40 mg/kg PNA5 (n = 8 males per group)."}, "male Sprague Dawley rats [2]": {"tested_on": "male Sprague Dawley rats", "test": "Neurobehavioral evaluations after a single subcutaneous dose in male Sprague Dawley rats", "type": "in vivo, rat", "details": "single s.c. dose 1, 5 or 40 mg/kg, n = 8 per group", "experimental": "To evaluate the effects of PNA5 when administered subcutaneously on the central nervous system’s autonomic, neuromuscular, sensorimotor, and behavioral domains, neurobehavioral evaluations were performed in male Sprague Dawley rats treated with PNA5 at 0, 1, 5, or 40 mg/kg (n = 8 males per group). The neurobehavioral evaluations consisted of assessments of the central nervous system for activity, excitability, autonomic function, neuromuscular function, sensorimotor responses, and physiological function."}, "[3]": {"test": "Toxicokinetics of PNA5 in Beagle dog plasma", "details": "for AUC(0-t): AUC0–2, dogs; for Cmax: Beagle dogs, noncompartmental; for Tmax: table: average (range), text b115: median; for AUC0–2hr accumulation ratio: day 28 vs day 1, sexes combined; for fold increase in AUC0–2hr for a 20-fold increase in dose / fold increase in Cmax for a 20-fold increase in dose: 1 to 20 mg/kg/day; for time post-dose up to which PNA5 was quantifiable: days 1 and 28, limit of quantitation 5 ng/mL", "procedure": "Toxicokinetic (TK) of PNA5 was obtained from plasma following a single and repeated subcutaneous injection administration of PNA5 once daily for 28 days. Blood samples were collected on days 1 and 28 at the following time points: pre-dose and at approximately 5, 15, 30, 60, and 120 min post-dose (equivalent to 0.083, 0.25, 0.5, 1, and 2 h).\nFor the rat study, a total of 6 rats for each sex were assigned randomly to treatment groups 2–4 (those treated with PNA5). Three rats per sex were assigned to group 1 (vehicle control). Rats were sampled in satellite groups; rats' blood was taken at alternating time points, resulting in a total n = 3 per time point for six animals. For the dog study, three animals per sex were assigned to group 2 and group 3, and five animals per sex were assigned to group 1 and group 4. Blood was collected from canines via venipuncture.\nBlood was collected in heparinized tubes containing a protease inhibitor cocktail consisting of 4 mM 0-phenanthroline, 1.2 mM pepstatin A, and 0.5 M EDTA. Blood samples were centrifuged for 15 min at 2500 x g at room temperature. Plasma was transferred into pre-cooled, pre-labeled collection tubes, frozen immediately in liquid nitrogen/dry ice, and stored at −80 °C until analysis.\nPNA5 levels were analyzed using ultra-high performance liquid chromatography (UHPLC) with tandem mass spectrometric (MS/MS) detection. Precision and accuracy, reproducibility, selectivity, carryover, recovery, matrix effects, dilution integrity, hemolysis, stock stability, and matrix stability were assessed prior to initiation of the validation. Samples (5 µL) were injected onto the column and separated using gradient elution. Target compounds were quantified by summing the height of previously identified fragment peaks in the LC-MS [3] spectra. The serum concentrations were estimated using a calibration curve, accounting for the dilution factors and the probe recoveries for each experiment. Standards were matrix-matched to samples and underwent the same sample preparation steps.\nA noncompartmental analysis was used for parameter estimation. For PNA5 in plasma, the extravascular model was used for parameter estimation. For the rat study, all parameters were generated from PNA5 individual concentrations in plasma from days 1 and 28. Parameters were estimated using nominal dose levels and nominal sampling times relative to the dose administration. Plasma concentration values obtained at the pre-dose time point were used as the concentration at time 0 on days 1 and 28. For the dog study, all parameters were generated from PNA5 individual concentrations in plasma from days 1 and 28. Parameters were estimated using nominal dose levels and nominal sampling times relative to dose administration. Plasma concentration values obtained at the pre-dose time point were used as the concentration at time 0 on days 1 and 28. For Beagle dogs, concentration values reported as below the limit of quantitation (< 5 ng/mL) were assigned a value of 0.\nThe toxicokinetic parameters evaluated included the area under the curve of the plasma PNA5 concentration against time from time 0 (pre-dose) to 2 h (post-dose) (AUC0–2hr), the maximum plasma concentration (Cmax), time to maximum plasma concentration (Tmax), elimination rate (Kel), and the half-life. The area under the concentration vs. time curve was calculated using the linear trapezoidal method with linear interpolation for all profiles with at least three consecutive quantifiable concentrations. Kel was calculated from the slope using exponential regression of concentration versus time (Excel); exponential interpolations for all profiles include at least three concentrations plotted against time. Time 0 values and all concentrations listed as zero were excluded from Kel calculations. The half-life was calculated from Kel via the following equation: half-life Ln(2)/Kel."}}, "note": "Peptide text beside a SMILES is read from it. * marks the point of attachment. βGlc = OC[C@H]1O[C@@H](*)[C@H](O)[C@@H](O)[C@@H]1O", "data": [{"compound": "CC[C@H](C)[C@H](NC(=O)[C@H](Cc1ccc(O)cc1)NC(=O)[C@@H](NC(=O)[C@H](CCCNC(=N)N)NC(=O)[C@@H](N)CC(=O)O)C(C)C)C(=O)N[C@@H](Cc1c[nH]cn1)C(=O)N[C@@H](CO[C@@H]1O[C@H](CO)[C@@H](O)[C@H](O)[C@H]1O)C(N)=O", "note": "[PNA5, Ang-1–6-Ser-O-Glu-NH2] (H-DRVYIHS(βGlc)-NH2)", "values": [{"measurement": "respiratory rate, tidal volume and calculated minute volume", "setting": "male Sprague Dawley rats [1]", "value": "no effect"}, {"measurement": "neurobehavioral assessments of the central nervous system (activity, excitability, autonomic, neuromuscular, sensorimotor, physiological function)", "setting": "male Sprague Dawley rats [2]", "value": "nor were there observed PNA5-related effects"}, {"measurement": "AUC(0-t)", "setting": "[3]; both, Beagle, dog, plasma, sc, 1 mg/kg/day, plasma, s.c. 1 mg/kg/day, day 1, sexes combined, mean ± SD, n = 6, linear trapezoidal", "value": "63.5 ± 14.8", "unit": "ng·h/mL"}, {"measurement": "Cmax", "setting": "[3]; both, Beagle, dog, plasma, sc, 1 mg/kg/day, plasma, s.c. once daily 1 mg/kg/day, day 1, sexes combined, mean ± SD, n = 6, UHPLC-MS/MS", "value": "110 ± 37.3", "unit": "ng/mL"}, {"measurement": "Cmax", "setting": "[3]; both, Beagle, dog, plasma, sc, 1 mg/kg/day, plasma, s.c. once daily 1 mg/kg/day, day 28, sexes combined, mean ± SD, n = 6, UHPLC-MS/MS", "value": "146 ± 59.6", "unit": "ng/mL"}, {"measurement": "half-life", "setting": "[3]; both, Beagle, dog, plasma, sc, 1 mg/kg/day, dogs, plasma, s.c. 1 mg/kg/day, day 1, sexes combined, mean ± SD, n = 6, Ln(2)/Kel", "value": "17.4 ± 6", "unit": "min"}, {"measurement": "half-life", "setting": "[3]; both, Beagle, dog, plasma, sc, 1 mg/kg/day, dogs, plasma, s.c. 1 mg/kg/day, day 28, sexes combined, mean ± SD, n = 6, Ln(2)/Kel", "value": "15.6 ± 4.8", "unit": "min"}, {"measurement": "Tmax", "setting": "[3]; both, Beagle, dog, plasma, sc, 1 mg/kg/day, Tmax, dogs, plasma, s.c. 1 mg/kg/day, day 1, sexes combined", "value": 10, "unit": "min"}, {"measurement": "AUC(0-t)", "setting": "[3]; both, Beagle, dog, plasma, sc, 5 mg/kg/day, plasma, s.c. 5 mg/kg/day, day 1, sexes combined, mean ± SD, n = 6, linear trapezoidal", "value": "358 ± 95.1", "unit": "ng·h/mL"}, {"measurement": "AUC(0-t)", "setting": "[3]; both, Beagle, dog, plasma, sc, 5 mg/kg/day, plasma, s.c. 5 mg/kg/day, day 28, sexes combined, mean ± SD, n = 6, linear trapezoidal", "value": "365 ± 42.6", "unit": "ng·h/mL"}, {"measurement": "Cmax", "setting": "[3]; both, Beagle, dog, plasma, sc, 5 mg/kg/day, plasma, s.c. once daily 5 mg/kg/day, day 1, sexes combined, mean ± SD, n = 6, UHPLC-MS/MS", "value": "496 ± 115", "unit": "ng/mL"}, {"measurement": "Cmax", "setting": "[3]; both, Beagle, dog, plasma, sc, 5 mg/kg/day, plasma, s.c. once daily 5 mg/kg/day, day 28, sexes combined, mean ± SD, n = 6, UHPLC-MS/MS", "value": "444 ± 101", "unit": "ng/mL"}, {"measurement": "half-life", "setting": "[3]; both, Beagle, dog, plasma, sc, 5 mg/kg/day, dogs, plasma, s.c. 5 mg/kg/day, day 1, sexes combined, mean ± SD, n = 6, Ln(2)/Kel", "value": "30 ± 7.8", "unit": "min"}, {"measurement": "half-life", "setting": "[3]; both, Beagle, dog, plasma, sc, 5 mg/kg/day, dogs, plasma, s.c. 5 mg/kg/day, day 28, sexes combined, mean ± SD, n = 6, Ln(2)/Kel", "value": "34.8 ± 12.6", "unit": "min"}, {"measurement": "Tmax", "setting": "[3]; both, Beagle, dog, plasma, sc, 5 mg/kg/day, Tmax, dogs, plasma, s.c. 5 mg/kg/day, day 1, sexes combined", "value": 15, "unit": "min"}, {"measurement": "Tmax", "setting": "[3]; both, Beagle, dog, plasma, sc, 5 mg/kg/day, Tmax, dogs, plasma, s.c. 5 mg/kg/day, day 28, sexes combined", "value": 10, "unit": "min"}, {"measurement": "AUC(0-t)", "setting": "[3]; both, Beagle, dog, plasma, sc, 20 mg/kg/day, plasma, s.c. 20 mg/kg/day, day 1, sexes combined, mean ± SD, n = 10, linear trapezoidal", "value": "1270 ± 270", "unit": "ng·h/mL"}, {"measurement": "AUC(0-t)", "setting": "[3]; both, Beagle, dog, plasma, sc, 20 mg/kg/day, plasma, s.c. 20 mg/kg/day, day 28, sexes combined, mean ± SD, n = 10, linear trapezoidal", "value": "1080 ± 309", "unit": "ng·h/mL"}, {"measurement": "Cmax", "setting": "[3]; both, Beagle, dog, plasma, sc, 20 mg/kg/day, plasma, s.c. once daily 20 mg/kg/day, day 1, sexes combined, mean ± SD, n = 10, UHPLC-MS/MS", "value": "1440 ± 453", "unit": "ng/mL"}, {"measurement": "Cmax", "setting": "[3]; both, Beagle, dog, plasma, sc, 20 mg/kg/day, plasma, s.c. once daily 20 mg/kg/day, day 28, sexes combined, mean ± SD, n = 10, UHPLC-MS/MS", "value": "1120 ± 530", "unit": "ng/mL"}, {"measurement": "half-life", "setting": "[3]; both, Beagle, dog, plasma, sc, 20 mg/kg/day, dogs, plasma, s.c. 20 mg/kg/day, day 1, sexes combined, mean ± SD, n = 10, Ln(2)/Kel", "value": "41.4 ± 6", "unit": "min"}, {"measurement": "half-life", "setting": "[3]; both, Beagle, dog, plasma, sc, 20 mg/kg/day, dogs, plasma, s.c. 20 mg/kg/day, day 28, sexes combined, mean ± SD, n = 9, Ln(2)/Kel", "value": "48.6 ± 12.6", "unit": "min"}, {"measurement": "Tmax", "setting": "[3]; both, Beagle, dog, plasma, sc, 20 mg/kg/day, Tmax, dogs, plasma, s.c. 20 mg/kg/day, day 1, sexes combined", "value": 15, "unit": "min"}, {"measurement": "Tmax", "setting": "[3]; both, Beagle, dog, plasma, sc, 20 mg/kg/day, Tmax, dogs, plasma, s.c. 20 mg/kg/day, day 28, sexes combined", "value": 22.5, "unit": "min"}, {"measurement": "AUC0–2hr accumulation ratio", "setting": "[3]; dogs, 1 mg/kg/day", "value": 0.99}, {"measurement": "AUC0–2hr accumulation ratio", "setting": "[3]; dogs, 5 mg/kg/day", "value": 1.02}, {"measurement": "AUC0–2hr accumulation ratio", "setting": "[3]; dogs, 20 mg/kg/day", "value": 0.85}, {"measurement": "fold increase in AUC0–2hr for a 20-fold increase in dose", "setting": "[3]; dogs, day 1, sexes combined", "value": "~20.06", "unit": "fold"}, {"measurement": "fold increase in Cmax for a 20-fold increase in dose", "setting": "[3]; dogs, day 1, sexes combined", "value": "~13.06", "unit": "fold"}, {"measurement": "fold increase in AUC0–2hr for a 20-fold increase in dose", "setting": "[3]; dogs, day 28, sexes combined", "value": "~17.19", "unit": "fold"}, {"measurement": "fold increase in Cmax for a 20-fold increase in dose", "setting": "[3]; dogs, day 28, sexes combined", "value": "~7.70", "unit": "fold"}, {"measurement": "time post-dose up to which PNA5 was quantifiable", "setting": "[3]; dogs, plasma, 1 mg/kg/day", "value": "up to 1 h"}, {"measurement": "time post-dose up to which PNA5 was quantifiable", "setting": "[3]; dogs, plasma, 5 and 20 mg/kg/day, last sampling time 2 h", "value": "up to 2 h"}, {"measurement": "Kel", "setting": "[3]; dogs, plasma, s.c. 1 mg/kg/day, day 1, sexes combined, mean ± SD, n = 6, exponential regression", "value": "2.63 ± 0.97, 6 hr^–1"}, {"measurement": "Kel", "setting": "[3]; dogs, plasma, s.c. 1 mg/kg/day, day 28, sexes combined, mean ± SD, n = 6, exponential regression", "value": "2.87 ± 0.86, 6 hr^–1"}, {"measurement": "AUC0–2", "setting": "[3]; dogs, plasma, s.c. 1 mg/kg/day, day 28, sexes combined, mean ± SD, n = 6, linear trapezoidal", "value": "62.61 ± 19.05, 6 hr*ng/mL"}, {"measurement": "Tmax", "setting": "[3]; dogs, plasma, s.c. 1 mg/kg/day, day 28, sexes combined", "value": "0.167(0.083–0.25) hr"}, {"measurement": "Kel", "setting": "[3]; dogs, plasma, s.c. 5 mg/kg/day, day 1, sexes combined, mean ± SD, n = 6, exponential regression", "value": "1.44 ± 0.33, 6 hr^–1"}, {"measurement": "Tmax", "setting": "[3]; dogs, plasma, s.c. 5 mg/kg/day, day 1, sexes combined", "value": 15, "unit": "min"}, {"measurement": "Kel", "setting": "[3]; dogs, plasma, s.c. 5 mg/kg/day, day 28, sexes combined, mean ± SD, n = 6, exponential regression", "value": "1.32 ± 0.43, 6 hr^–1"}, {"measurement": "Tmax", "setting": "[3]; dogs, plasma, s.c. 5 mg/kg/day, day 28, sexes combined", "value": 10, "unit": "min"}, {"measurement": "Kel", "setting": "[3]; dogs, plasma, s.c. 20 mg/kg/day, day 1, sexes combined, mean ± SD, n = 10, exponential regression", "value": "1.02 ± 0.17, 10 hr^–1"}, {"measurement": "Tmax", "setting": "[3]; dogs, plasma, s.c. 20 mg/kg/day, day 1, sexes combined", "value": 15, "unit": "min"}]}]}
